Laboratory results: PubChem BioAssay (NCI)
Where “and” joins values, the source holds several entries; their conditions need not be identical. Identical values can stand only once.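 48-hour exposure; five concentrations; linearly interpolated endpoints. GI50 marks 50% less growth. TGI: total growth inhibition.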

Tests used:
Assay in all cases: NCI tumour cell line growth inhibition, 48 h
HOP-18 NSCLC = test system: HOP-18 NSCLC
DMS 273 small cell lung = test system: DMS 273 small cell lung
SN12K1 renal = test system: SN12K1 renal
P388 leukemia = test system: P388 leukemia
SNB-78 CNS = test system: SNB-78 CNS
P388/ADR leukemia = test system: P388/ADR leukemia
KM20L2 colon = test system: KM20L2 colon
M19-MEL melanoma = test system: M19-MEL melanoma
DLD-1 colon = test system: DLD-1 colon
LXFL 529 NSCLC = test system: LXFL 529 NSCLC
DMS 114 small cell lung = test system: DMS 114 small cell lung
RXF-631 renal = test system: RXF-631 renal

| Compound | TGI (HOP-18 NSCLC) | TGI (DMS 273 small cell lung) | TGI (SN12K1 renal) [µM] | TGI (P388 leukemia) [µM] | TGI (SNB-78 CNS) [µM] | TGI (P388/ADR leukemia) [µM] | TGI (KM20L2 colon) [µM] | TGI (M19-MEL melanoma) | TGI (DLD-1 colon) | TGI (LXFL 529 NSCLC) | TGI (DMS 114 small cell lung) | TGI (RXF-631 renal) [µM] | GI50 (HOP-18 NSCLC) [nM] | GI50 (SNB-78 CNS) [nM] | GI50 (M19-MEL melanoma) [nM] |
| --- | --- | --- | --- | --- | --- | --- | --- | --- | --- | --- | --- | --- | --- | --- | --- |
| COC12C(COC(N)=O)C3=C(C(=O)C(C)=C(N)C3=O)N1CC1C2N1C (centres undefined) | 82.5 µM | 5.81 µM | 19.9 | 75.2 | 51.1 | 263 | 52.3 | 24.7 µM | 57.8 µM | – | – | – | – | – | – |
| Cn1c2ccccc2c2ncc3[nH]c4ccccc4c3c21 | – | 34.7 µM | – | – | 57.6 | – | 36.6 | 49.1 µM | > 100 µM | 80.1 µM | 54.3 µM | > 100 | – | – | – |
| CCN(CC)CCSc1c2ccccc2nc2c(OC)ccc(OC)c12 | – | 25 µM | – | – | 22.3 | – | > 21.1 | 38.2 µM | – | > 21.3 µM | 3.24 µM | 17.9 | – | – | – |
| C/C(=N\NC(=S)N1CCCCCC1)c1ccccn1 | 0.927 µM and 6.14 µM | 1.69 µM and 2.13 µM | – | – | 13.7 | – | – | 1.06 µM and 0.687 µM | 1.38 µM and 4.44 µM | 0.19 µM and 0.405 µM | 0.138 µM and 0.0298 µM | 2.83 | 720 | 355 | 109 |
| CSc1nc(NC2OC(COC(C)=O)C(OC(C)=O)C(OC(C)=O)C2OC(C)=O)c(N=CC=Nc2c(NC3OC(COC(C)=O)C(OC(C)=O)C(OC(C)=O)C3OC(C)=O)nc(SC)n(C)c2=O)c(=O)n1C (centres undefined) | > 100 µM | > 100 µM | – | – | > 93.7 | – | > 100 | > 100 µM | > 100 µM | > 100 µM | > 100 µM | > 100 | – | – | – |
| CC(C)(C)[Si](C)(C)OC1C(=O)C[C@H]2CCCC[C@@H]12 (some centres undefined) | > 100 µM | > 100 µM | – | – | > 100 | – | > 100 | > 100 µM | > 100 µM | > 100 µM | > 100 µM | – | – | – | – |
| COc1ccc2c(c1)c[n+](C)c1c3cc(OC)c(OC)cc3ccc21 | 29.4 µM | 3.54 µM | – | – | 22.4 | – | 17.8 | 15.8 µM | 18 µM | 7.25 µM | 7.14 µM | – | – | – | – |
| CC(=O)N1CCC(=O)/C(=C/c2ccccc2)C1 | 51.2 µM | > 100 µM | – | – | > 100 | – | > 100 | 58.3 µM | 66.2 µM | 47.2 µM | 30.8 µM | > 100 | – | – | – |
| C[Si](C)(C)/C(I)=C/CO | 64.1 µM | 48.9 µM | – | – | 95.3 | – | 55.9 | 53.1 µM | – | > 100 µM | – | 83.8 | – | – | – |
| CS/C(=C(\S)c1ccccc1)c1ccccc1 | > 100 µM | > 100 µM | – | – | > 100 | – | > 31.6 | > 100 µM | > 100 µM | > 100 µM | > 100 µM | > 100 | – | – | – |
| Cc1ccc(S(=O)OCc2c(C)c(C)c(COS(=O)c3ccc(C)cc3)c(C)c2C)cc1 (centres undefined) | > 100 µM | > 100 µM | – | – | > 100 | – | > 100 | > 100 µM | > 100 µM | > 100 µM | > 100 µM | – | – | – | – |
| O=C1CCC(=O)c2c1c(O)c1ccncc1c2O | 60.5 µM | 37.7 µM | – | – | 38.4 | – | 49.8 | – | 28.1 µM | 30.2 µM | 25.4 µM | 54.8 | – | – | – |
| CCOC(=O)c1ccc(N=Nc2cc(C(=O)OCC)ccc2O)cc1 | > 100 µM | > 100 µM | – | – | – | – | > 100 | > 100 µM | > 100 µM | > 100 µM | > 100 µM | – | – | – | – |
| C[Si](C)(C)/C(Br)=C\CCN1C(=O)CCC1=O | > 100 µM | > 100 µM | – | – | > 100 | – | > 100 | > 100 µM | > 100 µM | > 100 µM | > 100 µM | > 100 | – | – | – |
| COC(=O)c1s/c(=N\C(=S)N(C)C)n(-c2ccc(Cl)cc2)c1C(=O)OC | – | > 100 µM | – | – | > 100 | – | > 100 | > 100 µM | – | – | – | – | – | – | – |
| COC12OCCN(C)C1=CC(=O)C1=NNC(C)C12 (centres undefined) | > 100 µM | > 100 µM | – | – | > 100 | – | – | > 100 µM | > 100 µM | > 100 µM | > 100 µM | > 100 | – | – | – |
| C=COC(=O)N[C@H]1CCc2cc(OC)c(OC)c(OC)c2-c2ccc(SC)c(=O)cc21 | > 100 µM | > 100 µM | – | – | > 100 | – | < 0.01 | > 100 µM | – | > 100 µM | – | – | – | – | – |
| C[C@]12CCC(=O)C=C1CC[C@@H]1C2CC[C@]2(C)Nc3[nH]ncc3CC12 (some centres undefined) | – | > 100 µM | – | – | > 100 | – | > 100 | > 100 µM | > 100 µM | > 100 µM | > 100 µM | – | – | – | – |
| [N-]=[N+]=N/C1=C/CCCCC(=O)C1 | – | > 100 µM | – | – | > 100 | – | > 100 | > 100 µM | > 100 µM | > 100 µM | > 100 µM | – | – | – | – |
